{"source": "patent US11136625B2", "about": "“Gene expression signatures predictive of subject response to a multi-kinase inhibitor and methods of using the same” (Crown Bioscience, Inc. (Taicang), priority 2013, dated 2021)", "key": {"[1]": {"test_system": "HCC-PDX model LIM1081 (code 004)", "test": "Sorafenib antitumor activity in HCC HuPrime PDX model LIM1081", "format": "in vivo, Balb/c nude mice", "conditions": "50 mg/kg p.o. qd × 13, P value 0.015", "excerpt": "(§1) Patient tumor samples and engraftment in immunocompromised mice. […] (<10).\n(§2) Evaluation of antitumor activity."}, "[2]": {"test_system": "HCC-PDX model LIM1025 (code 002)", "test": "Sorafenib antitumor activity in HCC HuPrime PDX model LIM1025", "format": "in vivo, Balb/c nude mice", "conditions": "50 mg/kg p.o. qd × 14, P value <0.001", "excerpt": "as §1, §2"}, "[3]": {"test_system": "HCC-PDX model LIMsh050 (code 020)", "test": "Sorafenib antitumor activity in HCC HuPrime PDX model LIMsh050", "format": "in vivo, Balb/c nude mice", "excerpt": "(§3) We were interested in identifying models that would respond or not respond to Sorafenib. To this end, we tested a cohort of randomly selected 21 HCC HuPrime by treating them with Sorafenib.\n(§4) Patient tumor samples and engraftment in immunocompromised mice. Freshly and surgically removed tumor tissues were obtained from the patients diagnosed as HCC through collaboration with the Beijing Keluoen Translational Medicine Institute and Hebei Medical University Fourth Hospital with approval by the Institutional Review Boards of Hebei Medical University Fourth Hospital and the informed consents from patients. The engraftments of patient tumor fragments into immunocompromised mice subcutaneously have been broadly described by others. Briefly, the tumors were sliced into 3×3×3 mm3 fragments and inoculated subcutaneously on the flank of mice (Balb/c nude, 6-8 wks old, female, Beijing HFK Bioscience Co. Ltd., Beijing, China). The tumor growth was monitored twice weekly by using a caliper. The established tumor models from these patient samples, called passage 0 or P0, were serially re-engrafted to maintain tumors, these subsequent passages were called P1, 2, 3 . . . (<10). […]"}, "[4]": {"test_system": "HCC-PDX model LIM612 (code 006)", "test": "Sorafenib antitumor activity in HCC HuPrime PDX model LIM612", "format": "in vivo, Balb/c nude mice", "conditions": "50 mg/kg p.o. Qd × 22, P value 0.001", "excerpt": "as §1, §2"}, "[5]": {"test_system": "HCC-PDX model LIM1068 (code 016)", "test": "Sorafenib antitumor activity in HCC HuPrime PDX model LIM1068", "format": "in vivo, Balb/c nude mice", "conditions": "50 mg/kg p.o. qd × 13, P value 0.024", "excerpt": "as §1, §2"}, "[6]": {"test_system": "HCC-PDX model LIM574 (code 009)", "test": "Sorafenib antitumor activity in HCC HuPrime PDX model LIM574", "format": "in vivo, Balb/c nude mice", "conditions": "50 mg/kg p.o. qd × 14, P value 0.002", "excerpt": "as §1, §2"}, "[7]": {"test_system": "HCC-PDX model LIM801 (code 012)", "conditions": "50 mg/kg p.o. 5 days on/2 days off, P value 0.001", "excerpt": "as §3, §4"}, "[8]": {"test_system": "HCC-PDX model LIM1035 (code 007)", "test": "Sorafenib antitumor activity in HCC HuPrime PDX model LIM1035", "format": "in vivo, Balb/c nude mice", "conditions": "50 mg/kg p.o. qd × 14, P value 0.005", "excerpt": "as §1, §2"}, "[9]": {"test_system": "HCC-PDX model LIM1088 (code 019)", "test": "Sorafenib antitumor activity in HCC HuPrime PDX model LIM1088", "format": "in vivo, Balb/c nude mice", "conditions": "50 mg/kg p.o. qd × 13, P value 0.182", "excerpt": "as §1, §2"}, "[10]": {"test_system": "HCC-PDX model LIM1078 (code 018)", "test": "Sorafenib antitumor activity in HCC HuPrime PDX model LIM1078", "format": "in vivo, Balb/c nude mice", "conditions": "50 mg/kg p.o. qd × 13, P value 0.055", "excerpt": "as §1, §2"}, "[11]": {"test_system": "HCC-PDX model LIM1054 (code 013)", "test": "Sorafenib antitumor activity in HCC HuPrime PDX model LIM1054", "format": "in vivo, Balb/c nude mice", "conditions": "50 mg/kg p.o. qd × 14, P value 0.045", "excerpt": "as §1, §2"}, "[12]": {"test_system": "advanced hepatocellular carcinoma (HCC)", "conditions": "background statement; cited from earlier work"}, "[13]": {"test_system": "HCC-PDX model LIF1069 (code 017)", "test": "Sorafenib antitumor activity in HCC HuPrime PDX model LIF1069", "format": "in vivo, Balb/c nude mice", "conditions": "50 mg/kg p.o. qd × 14, P value 0.024", "excerpt": "as §1, §2"}, "[14]": {"test_system": "HCC-PDX model LIM1097 (code 014)", "test": "Sorafenib antitumor activity in HCC HuPrime PDX model LIM1097", "format": "in vivo, Balb/c nude mice", "conditions": "50 mg/kg p.o. qd × 14, P value 0.046", "excerpt": "as §1, §2"}, "[15]": {"test_system": "HCC-PDX model LIM752 (code 003)", "test": "Sorafenib antitumor activity in HCC HuPrime PDX model LIM752", "format": "in vivo, Balb/c nude mice", "conditions": "50 mg/kg p.o. qd × 14, P value <0.001", "excerpt": "as §1, §2"}, "[16]": {"test_system": "HCC-PDX model LIM941 (code 010)", "test": "Sorafenib antitumor activity in HCC HuPrime PDX model LIM941", "format": "in vivo, Balb/c nude mice", "conditions": "50 mg/kg p.o. 5 days on/2 days off, P value <0.001", "excerpt": "as §1, §2"}, "[17]": {"test_system": "HCC-PDX model LIM1057 (code 015)", "test": "Sorafenib antitumor activity in HCC HuPrime PDX model LIM1057", "format": "in vivo, Balb/c nude mice", "conditions": "p.o. 50 mg/kg, qd × 14, P value 0.003", "excerpt": "as §1, §2"}, "[18]": {"test_system": "cohort of 21 hepatocellular carcinoma (HCC) patient derived xenografts (PDXs)", "test": "Clinical trial-like study of Sorafenib in a cohort of 21 HCC HuPrime PDXs", "format": "in vivo, Balb/c nude mice", "conditions": "13 out of 21 PDXs; daily oral Sorafenib 50 mg/kg", "excerpt": "as §1, §2\nPatient derived xenografts (PDXs) are considered experimental models mimicking patient tumors, or “patient avatars”. We performed a clinical-like trial (phase II-like) using a cohort of 21 hepatocellular carcinoma (HCC) patient derived xenografts (PDXs), also called patient avatar trial, for testing their response to multi-kinase inhibitor Sorafenib. […] Gene expression profiles of these PDXs were analyzed to reveal the mRNA expression signatures that may be predictive of the response to Sorafenib. This signature can be potentially used to develop companion diagnostics to stratify patent treatment, or individualized treatment."}, "[19]": {"test_system": "HCC-PDX model LIM1005 (code 008)", "test": "Sorafenib antitumor activity in HCC HuPrime PDX model LIM1005", "format": "in vivo, Balb/c nude mice", "conditions": "50 mg/kg p.o. qd × 14, P value 0.015", "excerpt": "as §1, §2"}, "[20]": {"test_system": "HCC-PDX model LIM334 (code 021)", "test": "Sorafenib antitumor activity in HCC HuPrime PDX model LIM334", "format": "in vivo, Balb/c nude mice", "excerpt": "as §1, §2"}, "[21]": {"test_system": "HCC-PDX model LIM1074 (code 011)", "test": "Sorafenib antitumor activity in HCC HuPrime PDX model LIM1074", "format": "in vivo, Balb/c nude mice", "conditions": "50 mg/kg p.o. qd × 13, P value 0.032", "excerpt": "as §1, §2"}, "[22]": {"test_system": "HCC-PDX model LIM1098 (code 005)", "test": "Sorafenib antitumor activity in HCC HuPrime PDX model LIM1098", "format": "in vivo, Balb/c nude mice", "conditions": "50 mg/kg qd × 14 p.o., P value 0.008", "excerpt": "as §1, §2"}}}
{"compound": "CNC(=O)c1cc(Oc2ccc(NC(=O)Nc3ccc(Cl)c(C(F)(F)F)c3)cc2)ccn1", "note": "[Sorafenib]", "values": [{"measurement": "ΔT/ΔC (day14-day15)", "setting": "[1]", "value": 0.14}, {"measurement": "ΔT/ΔC (day14-day15)", "setting": "[2]", "value": 0.01}, {"measurement": "model response to Sorafenib (in words)", "setting": "[3]; model L10050, daily oral 50 mg/kg", "value": "quite or partially resistant"}, {"measurement": "ΔT/ΔC (day14-day15)", "setting": "[3]; model LIMsh050, 50 mg/kg p.o. qd × 14, P value 0.134", "value": 0.78}, {"measurement": "ΔT/ΔC (day14-day15)", "setting": "[4]", "value": 0.15}, {"measurement": "ΔT/ΔC (day14-day15)", "setting": "[5]", "value": 0.47}, {"measurement": "ΔT/ΔC (day14-day15)", "setting": "[6]", "value": 0.21}, {"measurement": "ΔT/ΔC (day14-day15)", "setting": "[7]", "value": 0.37}, {"measurement": "ΔT/ΔC (day14-day15)", "setting": "[8]", "value": 0.16}, {"measurement": "ΔT/ΔC (day14-day15)", "setting": "[9]", "value": 0.54}, {"measurement": "ΔT/ΔC (day14-day15)", "setting": "[10]", "value": 0.48}, {"measurement": "ΔT/ΔC (day14-day15)", "setting": "[11]", "value": 0.38}, {"measurement": "increase survival for HCC patients", "setting": "[12]", "value": 3, "unit": "months"}, {"measurement": "ΔT/ΔC (day14-day15)", "setting": "[13]", "value": 0.47}, {"measurement": "ΔT/ΔC (day14-day15)", "setting": "[14]", "value": 0.41}, {"measurement": "ΔT/ΔC (day14-day15)", "setting": "[15]", "value": 0.10}, {"measurement": "ΔT/ΔC (day14-day15)", "setting": "[16]", "value": 0.23}, {"measurement": "ΔT/ΔC (day14-day15)", "setting": "[17]", "value": 0.43}, {"measurement": "PDXs that achieved effective tumor growth inhibition with % ΔT/ΔC<40% (p<0.05)", "setting": "[18]", "value": 62, "unit": "%"}, {"measurement": "ΔT/ΔC (day14-day15)", "setting": "[19]", "value": 0.21}, {"measurement": "model response to Sorafenib (in words)", "setting": "[20]; model L10334, daily oral 50 mg/kg", "value": "quite or partially resistant"}, {"measurement": "ΔT/ΔC (day14-day15)", "setting": "[20]; model LIM334, 50 mg/kg p.o. 5 days on/2 days off, P value 0.659", "value": 1.13}, {"measurement": "ΔT/ΔC (day14-day15)", "setting": "[21]", "value": 0.35}, {"measurement": "ΔT/ΔC (day14-day15)", "setting": "[22]", "value": 0.14}]}
